Data reported in ChEMBL document CHEMBL1201862, “PubChem BioAssay data set” (2004).
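Cultured in 96-well plates, cells were exposed to test compound for 48 hours across five concentrations. GI50: concentration for 50% inhibition of growth.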 Activity calls are given as the source filed them. No stated cut-off is given here; in the data, active = GI50 up to about 1.1 µM and inactive = higher.

What was measured:
Assay in all cases: inhibition of tumour cell growth, NCI panel, 48 h
A498 = tested on: A498
A549 = tested on: A549
ACHN = tested on: ACHN
CCRF-CEM = tested on: CCRF-CEM
COLO 205 = tested on: COLO 205
DU-145 = tested on: DU-145
HCC 2998 = tested on: HCC 2998
HCT-116 = tested on: HCT-116
HCT-15 = tested on: HCT-15
HL-60 = tested on: HL-60
HOP-92 = tested on: HOP-92
HT-29 = tested on: HT-29
Hs-578T = tested on: Hs-578T
K562 = tested on: K562
KM12 = tested on: KM12
LOX IMVI = tested on: LOX IMVI
M14 = tested on: M14
MCF7 = tested on: MCF7
MDA-MB-231 = tested on: MDA-MB-231
MDA-MB-435 = tested on: MDA-MB-435
MDA-N = tested on: MDA-N
MOLT-4 = tested on: MOLT-4
NCI-H226 = tested on: NCI-H226
NCI-H23 = tested on: NCI-H23
NCI-H460 = tested on: NCI-H460
NCI-H522 = tested on: NCI-H522
NCI/ADR-RES = tested on: NCI/ADR-RES
OVCAR-3 = tested on: OVCAR-3
OVCAR-4 = tested on: OVCAR-4
OVCAR-8 = tested on: OVCAR-8
PC-3 = tested on: PC-3
RXF 393 = tested on: RXF 393
SF-268 = tested on: SF-268
SF-295 = tested on: SF-295
SK-MEL-28 = tested on: SK-MEL-28
SK-MEL-5 = tested on: SK-MEL-5
SK-OV-3 = tested on: SK-OV-3
SN12C = tested on: SN12C
SNB-19 = tested on: SNB-19
SNB-75 = tested on: SNB-75
SR = tested on: SR
SW-620 = tested on: SW-620
T47D = tested on: T47D
TK-10 = tested on: TK-10
U-251 = tested on: U-251
UACC-257 = tested on: UACC-257
UO-31 = tested on: UO-31
786-0 = tested on: 786-0
EKVX = tested on: EKVX
HOP-62 = tested on: HOP-62
IGROV-1 = tested on: IGROV-1
OVCAR-5 = tested on: OVCAR-5
RPMI-8226 = tested on: RPMI-8226
SF-539 = tested on: SF-539
CAKI-1 = tested on: CAKI-1
SK-MEL-2 = tested on: SK-MEL-2
UACC-62 = tested on: UACC-62
Malme-3M = tested on: Malme-3M

SMILES: CC1(C)OCC(CO)(CO)CO1
- GI50 (A498): 14 µM (inactive)
- GI50 (A549): > 100 µM (inactive)
- GI50 (ACHN): > 100 µM (inactive)
- GI50 (CCRF-CEM): > 100 µM (inactive)
- GI50 (COLO 205): > 100 µM (inactive)
- GI50 (DU-145): > 100 µM (inactive)
- GI50 (HCC 2998): > 100 µM (inactive)
- GI50 (HCT-116): > 100 µM (inactive)
- GI50 (HCT-15): > 100 µM
- GI50 (HL-60): > 100 µM (inactive)
- GI50 (HOP-92): > 100 µM (inactive)
- GI50 (HT-29): > 100 µM (inactive)
- GI50 (Hs-578T): > 100 µM (inactive)
- GI50 (K562): > 100 µM (inactive)
- GI50 (KM12): > 100 µM (inactive)
- GI50 (LOX IMVI): > 100 µM (inactive)
- GI50 (M14): > 100 µM (inactive)
- GI50 (MCF7): > 100 µM (inactive)
- GI50 (MDA-MB-231): > 100 µM (inactive)
- GI50 (MDA-MB-435): > 100 µM (inactive)
- GI50 (MDA-N): > 100 µM (inactive)
- GI50 (MOLT-4): > 100 µM (inactive)
- GI50 (NCI-H226): > 100 µM (inactive)
- GI50 (NCI-H23): > 100 µM (inactive)
- GI50 (NCI-H460): > 100 µM (inactive)
- GI50 (NCI-H522): > 100 µM (inactive)
- GI50 (NCI/ADR-RES): > 100 µM (inactive)
- GI50 (OVCAR-3): > 100 µM (inactive)
- GI50 (OVCAR-4): > 100 µM (inactive)
- GI50 (OVCAR-8): > 100 µM (inactive)
- GI50 (PC-3): > 100 µM (inactive)
- GI50 (RXF 393): > 100 µM (inactive)
- GI50 (SF-268): > 100 µM (inactive)
- GI50 (SF-295): > 100 µM (inactive)
- GI50 (SK-MEL-28): > 100 µM (inactive)
- GI50 (SK-MEL-5): > 100 µM (inactive)
- GI50 (SK-OV-3): > 100 µM (inactive)
- GI50 (SN12C): > 100 µM (inactive)
- GI50 (SNB-19): > 100 µM (inactive)
- GI50 (SNB-75): > 100 µM (inactive)
- GI50 (SR): > 100 µM (inactive)
- GI50 (SW-620): > 100 µM (inactive)
- GI50 (T47D): > 100 µM (inactive)
- GI50 (TK-10): > 100 µM (inactive)
- GI50 (U-251): > 100 µM (inactive)
- GI50 (UACC-257): > 100 µM (inactive)
- GI50 (UO-31): > 100 µM (inactive)

SMILES: CN(C)C12C=CC=CC3=C(c4ccccc4)C(c4ccccc4)=C(c4ccccc4)C31c1ccccc1C2 (stereo not given)
- GI50 (786-0): > 100 µM (inactive)
- GI50 (A549): > 100 µM (inactive)
- GI50 (ACHN): > 100 µM (inactive)
- GI50 (CCRF-CEM): > 100 µM (inactive)
- GI50 (COLO 205): > 100 µM (inactive)
- GI50 (EKVX): > 100 µM (inactive)
- GI50 (HCC 2998): > 100 µM (inactive)
- GI50 (HCT-116): > 100 µM (inactive)
- GI50 (HCT-15): > 100 µM
- GI50 (HL-60): > 100 µM (inactive)
- GI50 (HOP-62): > 100 µM (inactive)
- GI50 (HT-29): > 100 µM (inactive)
- GI50 (Hs-578T): > 100 µM (inactive)
- GI50 (IGROV-1): > 100 µM (inactive)
- GI50 (K562): > 100 µM (inactive)
- GI50 (KM12): > 100 µM (inactive)
- GI50 (M14): > 100 µM (inactive)
- GI50 (MCF7): > 100 µM (inactive)
- GI50 (MDA-MB-231): > 100 µM (inactive)
- GI50 (MDA-MB-435): > 100 µM (inactive)
- GI50 (MDA-N): > 100 µM (inactive)
- GI50 (MOLT-4): > 100 µM (inactive)
- GI50 (NCI-H460): > 100 µM (inactive)
- GI50 (NCI-H522): > 100 µM (inactive)
- GI50 (NCI/ADR-RES): > 100 µM (inactive)
- GI50 (OVCAR-4): > 100 µM (inactive)
- GI50 (OVCAR-5): > 100 µM (inactive)
- GI50 (OVCAR-8): > 100 µM (inactive)
- GI50 (PC-3): > 100 µM (inactive)
- GI50 (RPMI-8226): > 100 µM (inactive)
- GI50 (SF-268): > 100 µM (inactive)
- GI50 (SF-295): > 100 µM (inactive)
- GI50 (SF-539): > 100 µM (inactive)
- GI50 (SK-MEL-28): > 100 µM (inactive)
- GI50 (SK-MEL-5): > 100 µM (inactive)
- GI50 (SK-OV-3): > 100 µM (inactive)
- GI50 (SN12C): > 100 µM (inactive)
- GI50 (SNB-19): > 100 µM (inactive)
- GI50 (SNB-75): > 100 µM (inactive)
- GI50 (SR): > 100 µM (inactive)
- GI50 (SW-620): > 100 µM (inactive)
- GI50 (T47D): > 100 µM (inactive)
- GI50 (TK-10): > 100 µM (inactive)
- GI50 (U-251): > 100 µM (inactive)
- GI50 (UACC-257): > 100 µM (inactive)
- GI50 (UO-31): > 100 µM (inactive)

SMILES: N=C(N)c1ccc(OCCCCCOc2ccc(C(=N)N)cc2)cc1 [PENTAMIDINE]
- GI50 (786-0): 13.7 µM (inactive)
- GI50 (A549): 11 µM (inactive)
- GI50 (ACHN): 23.6 µM (inactive)
- GI50 (CAKI-1): 57 µM (inactive)
- GI50 (DU-145): 13.2 µM (inactive)
- GI50 (EKVX): 19.1 µM (inactive)
- GI50 (HCC 2998): 12.2 µM (inactive)
- GI50 (HCT-116): 22.4 µM (inactive)
- GI50 (HCT-15): 24.8 µM
- GI50 (HL-60): 19.3 µM (inactive)
- GI50 (HOP-62): 14.9 µM (inactive)
- GI50 (HOP-92): 28.5 µM (inactive)
- GI50 (Hs-578T): 14.9 µM (inactive)
- GI50 (K562): 3.45 µM (inactive)
- GI50 (LOX IMVI): 16.1 µM (inactive)
- GI50 (M14): 15.5 µM (inactive)
- GI50 (MCF7): 9.55 µM (inactive)
- GI50 (MDA-MB-231): 16.7 µM (inactive)
- GI50 (MDA-MB-435): 16.6 µM (inactive)
- GI50 (MDA-N): 15.6 µM (inactive)
- GI50 (NCI-H23): 10.4 µM (inactive)
- GI50 (NCI-H460): 2.98 µM (inactive)
- GI50 (NCI/ADR-RES): 71.6 µM (inactive)
- GI50 (OVCAR-3): 14.3 µM (inactive)
- GI50 (OVCAR-4): 10.9 µM (inactive)
- GI50 (OVCAR-5): 21 µM (inactive)
- GI50 (OVCAR-8): 13.7 µM (inactive)
- GI50 (PC-3): 18.5 µM (inactive)
- GI50 (RXF 393): 16.7 µM (inactive)
- GI50 (SF-268): 17.2 µM (inactive)
- GI50 (SF-539): 12.6 µM (inactive)
- GI50 (SK-MEL-28): 14.7 µM (inactive)
- GI50 (SK-MEL-2): 9.06 µM (inactive)
- GI50 (SN12C): 6.55 µM (inactive)
- GI50 (SNB-19): 10.7 µM (inactive)
- GI50 (T47D): 7.76 µM (inactive)
- GI50 (TK-10): 18.9 µM (inactive)
- GI50 (U-251): 8.26 µM (inactive)
- GI50 (UACC-62): 12.2 µM (inactive)

SMILES: CCOC(=O)c1c(SC(=O)C(C)(C)Oc2ccc(Cl)cc2)n(-c2ccccc2)c(=S)n(-c2ccccc2)c1=O
- GI50 (786-0): 27.6 µM (inactive)
- GI50 (A498): 52.7 µM (inactive)
- GI50 (A549): 26.9 µM (inactive)
- GI50 (ACHN): 23.3 µM (inactive)
- GI50 (CAKI-1): > 100 µM (inactive)
- GI50 (CCRF-CEM): 30.1 µM (inactive)
- GI50 (COLO 205): 20.7 µM (inactive)
- GI50 (DU-145): 45.2 µM (inactive)
- GI50 (EKVX): 52.8 µM (inactive)
- GI50 (HCC 2998): > 100 µM (inactive)
- GI50 (HCT-116): 22.4 µM (inactive)
- GI50 (HCT-15): 60.4 µM
- GI50 (HL-60): 19.5 µM (inactive)
- GI50 (HOP-62): 26 µM (inactive)
- GI50 (HOP-92): 35.6 µM (inactive)
- GI50 (HT-29): 27.4 µM (inactive)
- GI50 (Hs-578T): 26.9 µM (inactive)
- GI50 (IGROV-1): 20.1 µM (inactive)
- GI50 (K562): 30.8 µM (inactive)
- GI50 (KM12): 24.8 µM (inactive)
- GI50 (LOX IMVI): 31.8 µM (inactive)
- GI50 (M14): 30.3 µM (inactive)
- GI50 (MCF7): 21.5 µM (inactive)
- GI50 (MDA-MB-231): 26.6 µM (inactive)
- GI50 (MDA-MB-435): 33 µM (inactive)
- GI50 (MDA-N): 48.8 µM (inactive)
- GI50 (MOLT-4): 24.9 µM (inactive)
- GI50 (Malme-3M): 23 µM (inactive)
- GI50 (NCI-H226): 40 µM (inactive)
- GI50 (NCI-H23): 61.7 µM (inactive)
- GI50 (NCI-H460): 22.1 µM (inactive)
- GI50 (NCI-H522): 39.8 µM (inactive)
- GI50 (NCI/ADR-RES): 58.6 µM (inactive)
- GI50 (OVCAR-3): 32.1 µM (inactive)
- GI50 (OVCAR-4): 34.4 µM (inactive)
- GI50 (OVCAR-5): 67 µM (inactive)
- GI50 (OVCAR-8): 19.6 µM (inactive)
- GI50 (RXF 393): 25.1 µM (inactive)
- GI50 (SF-268): 20.2 µM (inactive)
- GI50 (SF-295): 59.2 µM (inactive)
- GI50 (SF-539): 22.9 µM (inactive)
- GI50 (SK-MEL-28): 62.5 µM (inactive)
- GI50 (SK-OV-3): 45.6 µM (inactive)
- GI50 (SN12C): 25.2 µM (inactive)
- GI50 (SNB-19): 31.6 µM (inactive)
- GI50 (SNB-75): 51.4 µM (inactive)
- GI50 (SR): 23.9 µM (inactive)
- GI50 (SW-620): 22.6 µM (inactive)
- GI50 (T47D): 84.5 µM (inactive)
- GI50 (TK-10): 89.5 µM (inactive)
- GI50 (U-251): 19.6 µM (inactive)
- GI50 (UACC-257): > 100 µM (inactive)
- GI50 (UACC-62): 67.8 µM (inactive)
